# Assay results reported in ChEMBL document CHEMBL4765400, “Open and rearranged norbornane derived polycyclic cage molecules as potential neuroprotective agents through attenuation of MPP- and calcium overload-induced excitotoxicity in neuroblastoma SH-SY5Y cells” (Eur J Med Chem, 2020).
# pKi: −log10 of the molar value. The source made the active and inactive calls. No cut-off for these calls is given here.
# Tests used:
# SH-SY5Y [1] = assay: Antagonist activity at NMDA receptor in human SH-SY5Y cells assessed as inhibition of calcium influx at 10 uM by Fura-2AM dye based fluorescence analysis relative to control; assay type: cell-based
# [2] = Cytotoxicity against human SH-SY5Y cells assessed as cell viability at 10 uM incubated for 24 hrs by MTT assay relative to control; assay type: cell-based; details: read-out: Activity
# SH-SY5Y [3] = assay: Neuroprotective activity against MPP+-induced neurotoxicity in human SH-SY5Y cells assessed as cell viability at 10 uM pretreated for 2 hrs followed by MPP+ challenge and measured after 24 hrs by MTT assay relative to control; assay type: functional; details: time 26 hrs, read-out: Activity
# SH-SY5Y [4] = assay: Cytotoxicity against human SH-SY5Y cells assessed as reduction in cell viability at 10 to 100 uM incubated for 24 hrs by MTT assay; assay type: cell-based; details: dose 10-100 µM
# SH-SY5Y [5] = assay: Blockade of VGCC in human SH-SY5Y cells assessed as inhibition of membrane depolarisation-induced calcium influx at 10 uM by Fura-2AM dye based fluorescence analysis relative to control; assay type: cell-based
# [6] = Antagonist activity at NMDA receptor (unknown origin); parameters: species or system Homo sapiens
# [7] = Displacement of [3H]MK801 from NMDA receptor (unknown origin) by radioligand binding assay; parameters: species or system Homo sapiens
# [8] = Cytotoxicity against human SH-SY5Y cells assessed as cell viability at 100 uM incubated for 24 hrs by MTT assay relative to control; assay type: cell-based; details: read-out: Activity
# [9] = Displacement of [3H]MK801 from NMDA receptor in Sprague-Dawley rat cerebral cortical membrane incubated for 60 mins by liquid scintillation counting analysis; assay type: cell membranes, Cerebral cortex
# [10] = Displacement of [3H]MK801 from NMDA receptor in human brain by radioligand binding assay; assay type: tissue-based
SMILES,inhibition (SH-SY5Y [1]; filed as antagonist),"viability at 24 h, 10 µM [2]",viability at 10 µM (SH-SY5Y [3]),Activity (SH-SY5Y [4]),inhibition (SH-SY5Y [5]),also measured
O=C1CC[C@H]2C[C@@H]1CCC2=O,73%,125%,26.1%,Non-Toxic,inactive,
O=C1C=C[C@H](NCc2ccccc2)[C@@H]2[C@H]1[C@H]1C=C[C@@H]2C1,,108%,33.7%,Toxic,21.3%,inhibition (SH-SY5Y [1]): 26.5%
O=C1CCC(=O)[C@H]2[C@@H]1[C@H]1C=C[C@H]2C1,51%,96.6%,40.6%,Toxic,25.4%,
NC12CC3CC(CC(C3)C1)C2 [AMANTADINE],,,,,,pKi [6]: 5.00
O=C1C2C3C=CC(C3)C2C(=O)C2C3C=CC(C3)C12 (stereo not given),62.3%,95.9%,41.4%,Non-Toxic,50.3%,
c1ccc(C2(N3CCCCC3)CCCCC2)cc1 [PHENCYCLIDINE],,,,,,pKi [7]: 7.23
O[C@@H]1C[C@H]2CC[C@@H]1NC2,43.5%,96.3%,28.3%,Toxic,inactive,"viability at 24 h, 100 µM [8]: 59%"
O=C1C=C[C@H](NN2CCCCC2)[C@@H]2[C@H]1[C@H]1C=C[C@@H]2C1,65.3%,93.7%,33.9%,Non-Toxic,8.4%,
C[C@@]12N[C@@H](Cc3ccccc31)c1ccccc12,47.5%,,,,inactive,pKi [9]: 7.43
"O=C1CC[C@H](O)C2C3C=C[C@@H](C3)C12 (single isomer, unassigned)",69.7%,96.3%,35%,Non-Toxic,32.8%,
O=C1C=CC(=O)[C@H]2[C@@H]1[C@H]1C=C[C@H]2C1,43.8%,97.7%,32.8%,Toxic,15%,
CC12CC3CC(C)(C1)CC(N)(C3)C2 [MEMANTINE],,,,,,pKi [10]: 6.27
CN[C@@]1(c2ccccc2Cl)CCCCC1=O,,,,,,pKi [7]: 6.18
COCCOC(=O)C1=C(C)NC(C)=C(C(=O)OC(C)C)C1c1cccc([N+](=O)[O-])c1 (stereo not given),,,,,34.1%,inhibition (SH-SY5Y [1]): inactive
C1=C[C@H]2CC[C@@H]1[C@H]1CNC[C@H]12,55.5%,108%,27.5%,Non-Toxic,5.79%,
C1C2OC2[C@H]2[C@@H]1[C@H]1C[C@@H]2C2OC21 (stereo not given in full),53.3%,94.4%,27.9%,Toxic,8.49%,
